Laboratory results as given in paper PMC11401910, “Dual client binding sites in the ATP-independent chaperone SurA” (Nature Communications, 2024).
“Also recorded” adds a separate entry of the source. Like-named read-outs stand apart in the source and are kept apart here.

Columns and labels:
SurA-WT [1] = biological target: T1, SurA-WT (Escherichia coli, UniProt P0ABZ6); format: binding; parameters: made in house; host or cells: E. coli BL21(DE3)
Procedure: All NMR experiments were performed on a 950-MHz Bruker Ascend Avance III HD NMR spectrometer equipped with either a Bruker 3 mm TCI or 5 mm TXO triple-resonance cryogenically cooled probe. Peptide binding experiments were performed in 5 mM EDTA, 20 mM Tris-HCl, pH 8.0 with 5 % (v/v) D2O at 25 °C. Binding experiments using full-length OMP sequences also contained 0.8 M urea. Data was acquired for ~16 h with the exception of OMP-containing experiments which were acquired for ~5 h. […] (2D ^1H-^13C SOFAST-HMQC)[70]. […] Errors in the intensity ratios for each peak between two spectra were obtained by propagating the errors according to:1 δR=R*δX/X+δY/Y where δR is the error in the intensity ratio, |R| is the value of the intensity ratio, X and Y are the intensity values for the peak in the first and second spectrum, respectively, and δX and δY are the noise floor values for the first and second spectrum, respectively.
Z-scores for intensity ratio and CSP data were calculated using:3 Zi=xi−μ/σ where xi is the value for a particular peak, and µ and σ are the mean and standard deviation for all peaks, respectively.
For assignment of SurA-WT Ile and Met residues (43 in total) each residue was individually mutated (Supplementary Table 3), and the effect of the mutation assessed by methyl-TROSY NMR. Samples contained 5–70 µM SurA variant. Assignment experiments (2D ^1H-^13C SOFAST-HMQCs) for Ile or Met variants were performed in 20 mM sodium phosphate, 50 mM NaCl, pH 7.5 (at 35 °C), or 20 mM Tris-HCl, pH 8 (at 25 °C), respectively. […] The ^1H chemical shift assignments were referenced using 2,2-dimethyl-2-silapentane-5-sulphonic acid (DSS) at 25 °C as a standard. The ^13C chemical shifts were referenced indirectly to DSS. NMR assignments have been deposited in the Biological Magnetic Resonance Bank (BMRB) with Entry ID 52180.

SurA-WT [2] = biological target: T1, SurA-WT; details: pH 8
Source text: (1 picture or pasted object on this page, not shown here)
Source data are provided as a Source Data file.

SurA = details: read-out: Kd, binding of peptide to SurA; cited from earlier work
Source text: (where Ar is an aromatic residue and X is any amino acid), or aromatic-enriched sequences containing an Ar-X-Ar-X-Pro motif. […] Both of these types of peak changes (shifts and/or broadening), can report on binding or conformational changes caused by binding at the location of the corresponding ^13CH3 probe[73],[74].

[3] = 5 µM SurA-WT, 200 µM peptide (SVD and WEYIPNV 50 µM), 5 mM EDTA, 20 mM Tris-HCl pH 8, 25 °C

T1 sequence (P0ABZ6 other isoform, or with tags, fused parts or gaps): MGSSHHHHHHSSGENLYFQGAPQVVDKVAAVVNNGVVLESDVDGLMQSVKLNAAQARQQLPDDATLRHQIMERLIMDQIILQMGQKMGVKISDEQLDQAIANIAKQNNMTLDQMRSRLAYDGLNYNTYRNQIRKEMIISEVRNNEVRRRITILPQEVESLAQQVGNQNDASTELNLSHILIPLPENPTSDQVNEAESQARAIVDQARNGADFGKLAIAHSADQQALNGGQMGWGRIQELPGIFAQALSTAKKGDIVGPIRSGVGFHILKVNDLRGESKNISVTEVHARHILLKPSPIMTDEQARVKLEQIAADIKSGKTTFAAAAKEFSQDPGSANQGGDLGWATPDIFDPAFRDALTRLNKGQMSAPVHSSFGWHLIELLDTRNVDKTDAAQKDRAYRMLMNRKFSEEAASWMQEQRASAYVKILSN

Compound | Interaction of peptide with SurA-WT binding sites (core, P1) by methyl-TROSY NMR, in words (SurA-WT [1]; [3]) | Interaction of peptide with SurA-WT binding sites (core, P1) by methyl-TROSY NMR, in words (SurA-WT [1]; pH 8) | Affinity of peptide for SurA-WT by ITC (in words) (SurA-WT [2]) | Kd (SurA)
CSCC[C@H](NC(=O)[C@H](CCCCN)NC(=O)[C@H](CC(N)=O)NC(=O)[C@H](CCSC)NC(=O)[C@H](CCC(N)=O)NC(C)=O)C(=O)NCC(=O)NCC(=O)N[C@@H](Cc1ccccc1)C(=O)N[C@@H](CC(N)=O)C(=O)N[C@@H](CC(C)C)C(=O)N[C@@H](CCCCN)C(=O)N[C@@H](Cc1ccc(O)cc1)C(=O)N[C@@H](CCCNC(=N)N)C(=O)N[C@@H](Cc1ccc(O)cc1)C(=O)N[C@@H](CCC(=O)O)C(N)=O [QMN] | also affect the peak for M231 in the P1 domain; also recorded: binding results in conformational changes associated with core-P1 opening | – | – | –
Ac-KHDTSDYGFSYGAGL-NH2 [KHD] | also affect the peak for M231 in the P1 domain | – | – | –
NLKYRYE [QMN^C-term, C-terminal seven residues of QMN] | – | demonstrated binding at the core site, but with binding largely abolished at the P1 site | – | –
WEYIPNV [reference compound] | – | severe broadening of the resonance for M231; also recorded: substantial CSPs in the P1 domain | consistent with literature values | 1 to 14 µM
